In data set [1] the test system is pHeps. Nature of the data set: LPS-induced cytokine production (ELISA) in pHeps. Format: cell-based, human. The procedure:
(§1) Interleukin-6 (IL-6) and Tumor necrosis factor alpha (TNFα) levels in the media were measured using human IL-6 and TNFα enzyme-linked immunosorbent assay (ELISA) kits (Abcam) according to manufacturer's instructions.

The test system of data set [2] is pKCs. Nature of the data set: LPS-induced cytokine production (ELISA) in pKCs. In kind it is cell-based, human. The procedure:
as §1
(In general: ELISA stands for enzyme-linked immunosorbent assay.)

The test system of data set [3] is iKCs. Nature of the data set: LPS-induced cytokine production (ELISA) in iKCs. In kind it is cell-based, human. More on the design: TNFα production upon LPS stimulation: unit not given here. As for the experimental part: as §1
Data set [4] concerns NL-Mφ. Nature of the data set: LPS-induced cytokine production (ELISA) in NL-Mφ. Format: cell-based, human. The procedure:
as §1

For data set [5], the system named is KCs. The settings on record: reference [46], cited from earlier work.
In data set [6] the test system is iHeps mono-culture. Nature of the data set: Cholestasis model, mono-culture control. The following applies: CPZ treatment. Format: cell-based, human. As for the experimental part:
(§2) Cells were incubated with 10 μM Fluorescein diacetate (FDA) and incubated for 30 minutes. The FDA-containing medium was removed and the cells were washed thrice with medium to remove any residual FDA. Images of bile acid accumulation were acquired using Olympus BX-DSU and quantified using Image J software and normalized to untreated control.

Data set [7] concerns BSEP, MDR1 and MRP1 mRNA in iHeps-iKCs co-culture. Nature of the data set: qPCR of bile transporter genes in cholestasis model. In kind it is cell-based, human. The settings on record: CPZ treatment. The procedure:
RNA was isolated using RNeasy Micro-kit (Qiagen, Hilden, Germany), RNA amount was determined using a NanoDrop™ ND-1000 Spectrophotometer (Life Technologies) and RNA was converted to cDNA using iScript cDNA synthesis kit (Bio-Rad Laboratories, Hercules, Calif., USA). 7000 Fast Real-Time PCR System (Applied Biosystems, Foster City, Calif., USA) was used for qPCR using primers commercially obtained from GeneCopoeia, Inc.
(Rockville, Md., USA). The expression levels of all marker genes were normalized to that of glyceraldehyde-3-phosphate dehydrogenase (GAPDH).
as §2

In data set [8] the test system is iHeps-iKCs co-culture. Nature of the data set: Bile acid accumulation (FDA). The following applies: 100 ng/ml LPS and 10 μM CPZ, 24 hours; versus untreated control. Format: cell-based, human. The procedure:
as §2

Data set [9] relates to iHeps-iKCs co-culture. Nature of the data set: Cytokine production (ELISA) in cholestasis model. Format: cell-based, human. The settings on record: 100 ng/ml LPS and 10 μM CPZ, 24 hours. As for the experimental part:
as §1, §2

The nature of data set [10]: Alamar Blue cell viability, iHeps mono-culture. In kind it is cell-based, human. The following applies: human, iHeps mono-culture (stem-cell derived). As for the experimental part:
(§3) For co-cultures, NL-Mφ, pKCs or iKCs were seeded at a density of 12,000 to 15,000 cells per well on Collagen I-coated 96-well plates. The cells were seeded in their respective media for 24 hours. Following cell attachment, medium was removed and iHeps or pHeps were seeded at a density of 2.5 times the density of the NL-Mφ/pKCs/iKCs in William's E media containing supplemental cocktail B. In some experiments, Advanced DMEM with supplement cocktail B (Media A) was used. The matching hepatocyte mono-culture controls were seeded in the same media and at the same density as the co-cultures.
(§4) Cell viability of differentiated hepatocytes was measured 24 hours after treatment with drugs using Alamar Blue® cell viability assay (Life Technologies) according to manufacturer's instructions. The following drugs were used for the cell viability assays: Acetaminophen, Trovafloxacin and Levofloxacin (all drugs from Sigma). Stock solutions of drugs were prepared in DMSO and then diluted in media to obtain desired working concentrations. Controls were treated with solvent alone (in absence of test compounds) and considered as 100% viability value.

Data set [11] is described as follows: Alamar Blue cell viability, pHeps mono-culture. Format: cell-based, human. The following applies: human, pHeps mono-culture. The procedure:
as §3, §4
(Resazurin is reduced to fluorescent resorufin, in cell work by metabolically active cells.)

Data set [12] is described as follows: Alamar Blue cell viability, pHeps-pKCs co-culture. Format: cell-based, human. The following applies: human, pHeps in co-culture with pKCs. As for the experimental part: as §3, §4
Data set [13] in a line: in vitro. In kind it is cell-based, human. The following applies: human. As for the experimental part:
as §3, §4

Data set [14] in a line: Alamar Blue cell viability, pHeps-iKCs co-culture. Format: cell-based, human. The following applies: human, pHeps in co-culture with iKCs; 100 μM, pHeps-iKCs co-culture. The procedure:
as §3, §4

The subject of data set [15] is pHeps in co-culture with NL-Mφ. In kind it is cell-based, human. The procedure:
as §3, §4

Data set [16] relates to iHeps mono-culture. Nature of the data set: Alamar Blue cell viability, iHeps mono-culture. Format: cell-based, human. The following applies: Homo sapiens; iHeps mono-culture. The procedure:
as §3, §4

Data set [17] deals with pHeps mono-culture. Nature of the data set: Alamar Blue cell viability, pHeps mono-culture. In kind it is cell-based, human. The following applies: Homo sapiens, 24 h. The procedure: as §3, §4
In data set [18] the test system is pHeps in co-culture with iKCs. Nature of the data set: Alamar Blue cell viability, pHeps-iKCs co-culture. The following applies: Homo sapiens, 24 h. In kind it is cell-based, human. The procedure: as §3, §4
In data set [19] the test system is pHeps in co-culture with pKCs. Nature of the data set: Alamar Blue cell viability, pHeps-pKCs co-culture. The following applies: Homo sapiens, 24 h. Format: cell-based, human. As for the experimental part: as §3, §4
Data set [20] deals with iHeps in co-culture with iKCs. Nature of the data set: in vitro. In kind it is cell-based, human. The procedure: as §3, §4
[21] abbreviates: 100 ng/ml LPS for 16 hours, versus no LPS.

Where only a bound is given, the exact number is not on record here.

Take lipopolysaccharide [LPS]: the “TNFα production upon LPS activation” value in [1] is given as “below detectable levels”. Moreover, the “IL-6 production upon LPS stimulation” value was 2018 pg/mL in [2], 5200 pg/mL in data set [3] and 800 pg/mL in [5]. Also, the entries for the “IL-6 level, LPS-treated” value in data set [2] (100 ng/ml LPS for 16 hours) and in data set [3] (100 ng/ml LPS for 16 hours) were 3420 pg/million cells/24 h and 5260 pg/million cells/24 h, respectively. For the same compound, the “fold increase in IL-6 production” value in data set [2] (setting [21]) came out at 25 folds; in data set [3] (setting [21]) it was 35 fold; in [4] (setting [21]) it was 103 folds. Also, the “fold increase in TNFα production” value is 35 folds in data set [2] (setting [21]); 33 folds in data set [3] (setting [21]); above 1000 folds in data set [4] (100 ng/ml LPS, level without LPS not detectable). Besides, the “TNFα production upon LPS stimulation” value in data set [3] is 10,000; in [5] (KCs), 4000 pg/mL.
As to `CN(C)CCCN1c2ccccc2Sc2ccc(Cl)cc21` [CPZ, Chlorpromazine], the “bile acid accumulation, cytokine production and reduction in transporter gene expression” value in [6] is reported as “not in mono-culture”. Moreover, in [7], the “mRNA expression of bile salt export pump (BSEP), fold change to untreated control” value worked out at 0.3±0.1 folds; the “mRNA expression of multidrug resistance (MDR1), fold change to untreated control” value is given as 0.4±0.2 folds; the “mRNA expression of multidrug resistance-associated protein 1 (MRP1), fold change to untreated control” value was 0.5±0.2 folds. Moreover, the bile acid accumulation entry in data set [8] was “Significant bile acid accumulation”. Further, in [9], the “IL-6 production, fold compared to untreated control” value is reported as 4.5 fold and the “TNFα production, fold compared to untreated control” value is listed as 6.5 fold.
For the compound `C[C@H]1COc2c(N3CCN(C)CC3)c(F)cc3c(=O)c(C(=O)O)cn1c23` [Levofloxacin], the viability at 24 h in data set [10], in [11], in [12] and in [13] was above 90% in each case.
For `N[C@@H]1[C@H]2CN(c3nc4c(cc3F)c(=O)c(C(=O)O)cn4-c3ccc(F)cc3F)C[C@@H]12` [Trovafloxacin], the viability at 24 h, 100 µM in data set [11] (100 μM) was determined as 73.8%; in data set [14], 55.8%; in data set [12] (100 μM, pHeps-pKCs co-culture), 53.8%. Moreover, in data set [15], the “cell viability, co-culture versus mono-culture” value is “No difference in cell viability”.
On to `CC(=O)Nc1ccc(O)cc1` [APAP, Acetaminophen], for which the 50% inhibitory concentration (IC50) in data set [16] worked out at 54 mM; in [17] it was 45 mM; in data set [18], 25 mM; in data set [19] it was 12.5 mM; in data set [20] (Homo sapiens, read-out: IC50 (cell viability)) it was 27 mM. In data set [20], the “cell viability, donor-matched co-culture versus mono-culture” value is “no significant difference”. For the same compound, the “cell death, co-culture versus pHeps mono-culture” value in data set [15] was “No difference in cell death”.

Usually viability stands for a read-out of living cells in per cent, often relative to untreated cells. For orientation: IC50 means the concentration that inhibits the measured activity by half.

These data come from patent publication US20230034359A1, “GENERATION OF MATURE KUPFFER CELLS” (AGENCY FOR SCIENCE, TECHNOLOGY AND RESEARCH, priority 2018, published 2023).
